Reference: PMC2358973, “A Cysteine Protease Is Critical for Babesia spp. Transmission in Haemaphysalis Ticks” (PLoS Pathogens, 2008)

Molecular target: T1, longipain (Haemaphysalis longicornis, UniProt A1IHG0)
T1 construct: gene HlCath; partial coding region (pPICZC) expressed in Pichia pastoris GS115, HiTrap chelating column purified; precursor 341 residues with 17-residue signal peptide
Assay: inhibition of fluorogenic substrate hydrolysis
Format: biochemical
Conditions: read-out: Inhibition (%) relative to control / Z-F-R-MCA
Text: inhibition of fluorogenic substrate hydrolysis on longipain

T1 sequence (A1IHG0 22-341 limits assumed): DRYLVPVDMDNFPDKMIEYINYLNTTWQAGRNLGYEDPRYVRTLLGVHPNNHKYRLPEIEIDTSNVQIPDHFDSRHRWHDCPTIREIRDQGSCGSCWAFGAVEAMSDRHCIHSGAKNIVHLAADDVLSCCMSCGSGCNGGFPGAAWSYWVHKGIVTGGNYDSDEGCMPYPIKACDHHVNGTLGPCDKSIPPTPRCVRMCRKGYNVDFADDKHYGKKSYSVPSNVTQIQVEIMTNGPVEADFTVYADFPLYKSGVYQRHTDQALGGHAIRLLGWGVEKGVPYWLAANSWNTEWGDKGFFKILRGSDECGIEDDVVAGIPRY

CC(C)C[C@H](NC(=O)[C@@H]1O[C@H]1C(=O)O)C(=O)NCCCCNC(=N)N [E-64]
inhibition at 10 µM: 84 ± 0.2%
